# In patent publication US20220241354A1, “COMPOSITION” (MORINAGA MILK INDUSTRY CO., LTD., priority 2019, published 2022):
# Key:
# [1] = tested on: Bifidobacterium infantis M-63; test: Growth promoting effect on Bifidobacterium infantis M-63 (turbidity at 600 nm); type: cell-based; settings: 2′-FL 1.000 mass %, lactoferrin 0.000 mg/mL; 37° C., 24 hours, n = 12
# Experimental: 150 μL of a pre-culture solution of Bifidobacterium breve M-16V was added to 3 mL of MRS medium prepared in (1) (i), and was anaerobically cultured at 37° C. for 16 hours. After culturing, the cells were separated from the culture solution by centrifuging at 1500×g for 5 minutes. The culture solution was removed, and the cells were resuspended in 3 mL of glucose-free MRS medium prepared in (1) (ii).
# The pre-culture solution prepared in (2) was added to the glucose-free MRS medium prepared in (1) (ii) to have a final concentration of 1 v/v %. Further, the 2′-fucosyllactose (2′-FL) solution and the lactoferrin solution prepared in (1) (iii) were respectively added to have the final concentrations shown in Table 2, and were dispensed into a 96-well plate at 200 μL/well.
# (§1) Then, the cells were anaerobically cultured at 37° C. for 24 hours. After culturing, turbidity was measured at a wavelength of 600 nm using a microplate reader (Corona Electric) to evaluate the growth of bifidobacteria.
# The same operation as in Example 1 was carried out except that the bifidobacteria were replaced with Bifidobacterium infantis M-63, and the growth was evaluated.
# [2] = tested on: Bifidobacterium breve M-16V; test: Growth promoting effect on Bifidobacterium breve M-16V (turbidity at 600 nm after anaerobic culture); type: cell-based; settings: 2′-FL 1.000 mass %, lactoferrin 0.000 mg/mL; glucose-free MRS, 37° C., 24 hours, n = 4
# Experimental: (§2) DifcoMRS (BD) was dissolved in purified water as described in a package insert and sterilized at 115° C. for 15 minutes. L-Cysteine hydrochloride (Wako) was dissolved in purified water, filtered and sterilized, and was aseptically added to MRS medium cooled to room temperature after sterilization to have a final concentration of 0.05% by mass.
# as §2, with “A reagent” for “DifcoMRS (BD)”, “with the composition shown” for “as described”, “Table 1” for “a package insert”
# Human milk oligosaccharide (2′-fucosyllactose (2′-FL) (Carbosynth)) and lactoferrin (produced by Morinaga Milk Industry Co., Ltd., iron content 15.8 mg/100 g) were dissolved in purified water, respectively. They were filtered and sterilized after dissolution.
# 150 μL of a pre-culture solution of Bifidobacterium breve M-16V was added to 3 mL of MRS medium prepared in (1) (i), and was anaerobically cultured at 37° C. for 16 hours. […]
# as §1
substance,measurement,setting,value
2′-fucosyllactose [2′-FL],OD600,[1],0.440
same,OD600,[2],0.076
